Assay results from US20160214958A1, “COMPOUNDS AND USE FOR TREATING CANCER” (GLIONOVA AB, priority 2013, published 2016).
Where two headings read alike, the source gives them in different places.

Legend:
[1] = test system: glioma stem cell line U3013; assay: In vitro cancer cell and CSC viability assay (ATP quantification, CellTiterGlo); format: cell-based, human; details: Homo sapiens; U3013, 24 hours exposure; read-out: In vitro efficacy (viability) EC50
Description: The ability of Examples S1-S23 to selectively induce cytotoxicity in glioma/glioblastoma cancer cells or glioma/glioblastoma cancer stem cells was determined by quantification of ATP production in glioma stem cell line U3013 in the presence of using CellTiterGlo reagent (Promega). Cells were exposed to compound in serial dilution in the range 1 nM to 50 µM for 24 hours and viability assessed with respect to negative control (dmso, no cell death) and positive control (staurosporine, full cell death). […] The EC50 of S10 remained largely similar at 2, 3 and 4 days of incubation. […] The individual isomers (S21-S23) of racemic S10 were evaluated in order to determine the enantiospecific pharmacology of the individual isomers.
Negative (100% DMSO) and positive (10 mM S10 in 100% DMSO) controls were placed in rows 1-4 and 5-8, respectively, of column 12. The wells were diluted with 190 μl of the corresponding growth media and 5 μl of each well of compound solution transferred to quadruplicate wells of a sterile 384-well black clear bottom plate (BD Falcon) containing GSC at 70% confluency in 45 μl growth media. The plate was incubated for 24 hours, after which the plate was removed from the incubator and each well imaged in bright-field using an Operetta Imaging system (PerkinElmer) at 37° C. and 5% CO2 to determine vacuole accumulation at each concentration. The plate was then allowed to cool to room temperature and each well treated with 25 μl freshly CellTiterGlo (Promega) reagent. The plate was shaken for 15 minutes and luminescence measured using a Victor3 (Perkin Elmer) microtiterplate reader. Total luminescence was normalized relative to control and curve fitting performed using GraphPad Prism (v6.02) software.

[2] = test system: U3013M GSCs intracranial tumor; assay: Mouse xenograft experiment, intracranial infusion by osmotic minipump; format: in vivo, Nod/SCID mice; details: 15 μM, 0.5 μL/hr, one week, started 6 weeks after grafting, vs vehicle
Description: The ability of S10 to attenuate tumor progression was next examined in a mouse model for human GBM. Nod/SCID mice received intracranial injections of 100 000 U3013M GSCs and the resulting tumor was allowed to develop for 7 weeks. […] Tumors were highly immunoreactive for human Nestin (hNestin) and human GFAP (hGFAP). S10 (15 μM, 0.5 μL/hr) or vehicle (DMSO) was administered into the site of original cell deposit by an osmotic minipump 6 weeks after cells were grafted. Animals were collected for histological analysis following one week of treatment. […] A massive LAMP1 staining was observed within the tumor cell mass following one week S10 administration, with most or all cells displaying immunoreactivity while mice receiving vehicle were devoid of LAMP1.
GSCs were dissociated with trypsin, resuspended in PBS and kept on ice and the viability of cells were checked using trypan blue before and after the experiment. Surgery in mice was performed using sterile techniques, 6 to 8 week old NOD-SCID mice were anaesthetized using a mixture of isoflurane and oxygen. […] The mice were monitored for weight loss and signs of distress. […]

[3] = test system: phospho-MKK4; assay: Western blot of GSC for phospho-MKK4; format: cell-based, human; details: GSCs; remained at similar levels for at least 26 hrs
Excerpt: A genome wide screen with shRNA libraries was used to identify pathways for S10 induced macropinocytosis. The approach was based on the idea that depleting a key factor in the pathway should render GSCs refractive to S10 induced death. Three different DECIPHER pooled lentiviral shRNA libraries consisting of 82500 shRNA covering 15377 genes grouped into Human Module 1 (genes associated with various signaling pathways), Human Module 2 (disease-associated genes) and Human Module 3 (genes associated with cell surface, extracellular and DNA binding), were used to transduce U3013MG GSCs. Four days later, 14 μM S10 was added for one day after which cells were cultured in standard medium for five month. Surviving cells were thereafter dissociated and further expanded. […] Phospho-MKK4 increased within 5 min of S10 exposure and remained at similar levels for at least 26 hrs of stimulation. […]
(§1) Whole-cell extracts were prepared in SDS-buffer (25 mM Tris-HCl, pH 7.5, 1 mM EDTA, protease inhibitor cocktail (Roche), and phosphatase inhibitors [2 mM sodium orthovanadate, 20 mM beta-glycerolphosphate], and 1% SDS). The samples were analysed by western blot as described previously (Aranda et al. (2008) Mol Cell Biol, 28, 5899-5911) with the following antibodies: anti-Histone H3 (Abcam), antitrimethyl(Lys27)-Histone H3 (Millipore) and anti-phospho(S257/Thr261)-SEK1/MKK4 (R&D Systems).

[4] = test system: histone H3 trimethylation at lysine 27 (H3K27me3); assay: Western blot of GSC for H3K27me3; format: cell-based, human; details: GSC treated for 5 min to 26 hours
Description: Cell extracts were immunoblotted for phosphor-MKK4 (P-MKK4) and histone H3 trimethylation at lysine 27 (H3K27me3).
as §1

[5] = test system: glioma stem cell line U3013; assay: In vitro cancer cell and CSC viability assay (ATP quantification, CellTiterGlo); format: cell-based; details: Homo sapiens; 3000 cells/cm2, after 24 hours; read-out: EC50, viability of GSCs

## OC(c1cc(-c2ccc(Cl)cc2)nc2ccccc12)C1CCCCN1 (racemic) [Compound S10, (2-(4-chlorophenyl)quinolin-4-yl)(piperidin-2-yl)methanol]
[1]
  EC50: 2360 nM
[2]
  loss of brain tissue by necrosis: markedly and significantly reduced
  tumor infiltration and area of hGFAP and hNestin immunoreactivity: significantly reduced
[3]
  time to increase of Phospho-MKK4 after exposure: ≤ 5 min
[4]
  effect on H3K27me3: lack of inhibition effects
[5]
  EC50: 2360 nM
